Measurements reported in paper PMC10247784, “Physiological activation of human and mouse bitter taste receptors by bile acids” (Communications Biology, 2023).
“And” between values parts separate entries of the source, which are not always exact repeats. Identical values can stand only once.

Experiments:
mouse Tas2r123 = molecular target: T1, mouse Tas2r123 (Mus musculus, UniProt P59528); test: Calcium imaging assay (FLIPR), HEK293T-Gα16gust44 cells transfected with mouse Tas2r123; format: cell-based; details: for Activation threshold concentration Tas2r123: p < 0.01 vs empty vector; for Δ F/F: Tas2r123
T1 construct: expressed in transfected cells; host or cells: HEK293T-Gα16gust44
T1 sequence (P59528 1-333): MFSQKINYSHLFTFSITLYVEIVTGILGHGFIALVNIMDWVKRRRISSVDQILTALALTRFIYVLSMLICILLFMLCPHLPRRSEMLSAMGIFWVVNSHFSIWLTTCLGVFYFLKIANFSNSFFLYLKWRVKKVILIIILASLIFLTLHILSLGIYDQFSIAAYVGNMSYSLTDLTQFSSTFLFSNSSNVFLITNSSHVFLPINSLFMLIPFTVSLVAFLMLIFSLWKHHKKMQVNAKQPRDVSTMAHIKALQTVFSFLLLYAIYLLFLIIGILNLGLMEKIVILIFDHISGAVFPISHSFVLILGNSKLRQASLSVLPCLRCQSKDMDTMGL
Protocol: (§1) This set of bile acids was chosen because of their commercial availability in high purities, their diversity within the class of bile acids and their previous detection and quantitation in human blood. Stock solutions were prepared in DMSO.
(§2) As basal growth medium for the HEK293T-Gα16gust44 cell line[17],[59] served Dulbecco’s modified eagle medium (DMEM) (Thermo Fisher Scientific, Darmstadt, Germany) supplemented with 10 % fetal bovine serum (Sigma-Aldrich, Steinheim, Germany), 2 mM L-glutamine (Sigma-Aldrich, Steinheim, Germany), 100 units/ml penicillin (Sigma Aldrich, Steinheim, Germany) and 100 µg/ml streptomycin (Sigma Aldrich, Steinheim, Germany). Growth conditions were 37 °C, 5 % CO2 and saturated air-humidity[60].
(§3) HEK293T-Gα16gust44 cells were seeded on poly-D-lysine (10 µg/ml) coated 96-well plates to reach a confluence of 40-60 % the next day. For transient transfection 150 ng of plasmid DNA containing the receptor of interest and 0.3 µl lipofectamine 2000 (Thermo Fisher Scientific, Darmstadt, Germany) per well were used and transfection took place according to the manual of lipofectamine 2000. […] The empty vector DNA (mock) was transfected as negative control[14],[41].
(§4) Cells were loaded using the calcium-sensitive fluorescent dye Fluo-4-AM (Abcam, Cambridge, Great Britain) in the presence of 2.5 mM probenecid (Sigma-Aldrich, Steinheim, Germany) the day after transfection[13],[41]. 1 h after loading, cells were washed with C1 buffer using a BioTek Cell Washer, incubated in the dark for half an hour and washed again. For automated agonist application and measurement of fluorescence changes, a FLIPR^TETRA device (Molecular Devices, San José, United States) was used. Viability of cells was tested by application of 100 nM Somatostatin 14 (Bachem, Bubendorf, Switzerland)[42].
(§5) Measured data were negative control corrected by subtracting the signal of the mock-transfected cells and exported to Microsoft Excel using the FLIPR software ScreenWorks 4.2. In Microsoft Excel software, standardization of maximum fluorescence intensities to the basal fluorescence and normalization to the buffer-only control was done to calculate the relative fluorescence changes (ΔF/F).
(§6) Initial screening experiments performed in duplicate wells were confirmed by at least one replication and representative traces were selected for display. All dose-response relationships were determined by three independent experiments (biological replicates) performed in duplicates (technical replicates). Threshold concentrations, defined as lowest substance concentrations leading to statistically significant elevated fluorescence changes in receptor-transfected cells compared with empty vector-transfected cells, were determined using SigmaPlot with Student’s t-test to evaluate statistical significance (p < 0.01).

human TAS2R39 = molecular target: T2, human TAS2R39 (Homo sapiens, UniProt P59534); test: Calcium imaging assay (FLIPR), HEK293T-Gα16gust44 cells transfected with human TAS2R39; format: cell-based; details: for Δ F/F / Efficacy = maximal amplitude (ΔF/F) / Efficacy (maximal amplitude ΔF/F), individual data points: TAS2R39; for Efficacy = maximal amplitude (ΔF/F) / Efficacy (maximal amplitude ΔF/F), individual data points: bile acids; for Efficacy = maximal amplitude (ΔF/F): mean; for Efficacy (maximal amplitude ΔF/F), individual data points: single replicates; for Activation threshold concentration TAS2R39: lowest concentration with significantly increased fluorescence vs empty vector (p < 0.01)
T2 construct: expressed in transfected cells; host or cells: HEK293T-Gα16gust44
T2 sequence (P59534 1-338): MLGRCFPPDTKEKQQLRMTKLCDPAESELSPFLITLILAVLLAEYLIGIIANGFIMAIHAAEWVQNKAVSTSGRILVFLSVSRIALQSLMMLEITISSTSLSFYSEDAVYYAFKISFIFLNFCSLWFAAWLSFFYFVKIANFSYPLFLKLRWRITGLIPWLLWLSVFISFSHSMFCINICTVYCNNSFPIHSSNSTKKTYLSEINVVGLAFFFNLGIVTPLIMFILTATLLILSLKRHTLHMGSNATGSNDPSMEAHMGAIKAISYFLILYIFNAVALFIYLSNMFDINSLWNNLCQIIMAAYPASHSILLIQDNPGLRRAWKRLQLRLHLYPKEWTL
Protocol: as §1, §2, §3, §4, §5, §6

Row | Compound | Activation threshold concentration Tas2r123 (mouse Tas2r123) [µM] | Δ F/F (mouse Tas2r123; conc. 0,01 mM) | Δ F/F (mouse Tas2r123; conc. 0,03 mM) | Δ F/F (mouse Tas2r123; conc. 0,001 mM) | Δ F/F (mouse Tas2r123; conc. 0,003 mM) | Δ F/F (human TAS2R39; Conc. 0,01 mM) | Δ F/F (human TAS2R39; Conc. 0,1 mM) | Δ F/F (human TAS2R39; Conc. 0,03 mM) | Δ F/F (human TAS2R39; Conc. 0,3 mM) | Δ F/F (human TAS2R39; Conc. 0,001 mM) | Δ F/F (human TAS2R39; Conc. 1 mM) | Δ F/F (human TAS2R39; Conc. 0,003 mM) | Efficacy = maximal amplitude (ΔF/F) (human TAS2R39) | Activation threshold concentration TAS2R39 (human TAS2R39) [µM] | Δ F/F (mouse Tas2r123; conc. 0,1 mM) | Δ F/F (mouse Tas2r123; conc. 0,3 mM) | also measured
1 | C[C@H](CCC(=O)O)[C@H]1CC[C@H]2[C@@H]3CC[C@@H]4C[C@H](O)CC[C@]4(C)[C@H]3C[C@H](O)[C@]12C [Deoxycholic Acid, deoxycholic acid] | 10 |  |  |  |  |  |  |  |  |  |  |  |  |  |  |  | 
2 | C[C@H](CCC(=O)O)[C@H]1CC[C@H]2[C@@H]3[C@H](O)C[C@@H]4C[C@H](O)CC[C@]4(C)[C@H]3C[C@H](O)[C@]12C [Cholic Acid, cholic acid] | 10 |  |  |  |  |  |  |  |  |  |  |  | 0.2007 | 300 |  |  | Efficacy (maximal amplitude ΔF/F), individual data points (human TAS2R39; listed as CA): 0.15 and 0.2304 and 0.2216
3 | C[C@H](CCC(=O)NCCS(=O)(=O)O)[C@H]1CC[C@H]2[C@@H]3[C@H](O)C[C@@H]4C[C@H](O)CC[C@]4(C)[C@H]3C[C@H](O)[C@]12C [Taurocholic Acid, taurocholic acid] | 100 | 0.015 | 0.02651 | 0.002404 | 0.009262 | 0.002616 | 0.007681 | 0.00381 | 0.02945 | -0.001111 | 0.155 | 0.0008114 | 0.155 | 300 | 0.09205 | 0.1589 | Efficacy (maximal amplitude ΔF/F), individual data points (human TAS2R39; listed as TCA): 0.1385 and 0.1739 and 0.1528

Second part, led by results:

Row | Activation threshold concentration Tas2r123 (mouse Tas2r123) [µM] | Δ F/F (mouse Tas2r123; conc. 0,01 mM) | Δ F/F (mouse Tas2r123; conc. 0,03 mM) | Δ F/F (mouse Tas2r123; conc. 0,001 mM) | Δ F/F (mouse Tas2r123; conc. 0,003 mM) | Compound | Δ F/F (human TAS2R39; Conc. 0,01 mM) | Δ F/F (human TAS2R39; Conc. 0,1 mM) | Δ F/F (human TAS2R39; Conc. 0,03 mM) | Δ F/F (human TAS2R39; Conc. 0,3 mM) | Δ F/F (human TAS2R39; Conc. 0,001 mM) | Δ F/F (human TAS2R39; Conc. 1 mM) | Δ F/F (human TAS2R39; Conc. 0,003 mM) | Efficacy = maximal amplitude (ΔF/F) (human TAS2R39) | Activation threshold concentration TAS2R39 (human TAS2R39) [µM] | Δ F/F (mouse Tas2r123; conc. 0,1 mM) | Δ F/F (mouse Tas2r123; conc. 0,3 mM) | also measured
4 | 30 | -0.001074 | -0.000632 | 7.054e-5 | 0.000982 | C[C@H](CCC(=O)NCC(=O)O)[C@H]1CC[C@H]2[C@@H]3[C@H](O)C[C@@H]4C[C@H](O)CC[C@]4(C)[C@H]3C[C@H](O)[C@]12C [Glycocholic Acid, glycocholic acid] | 0.001299 | 0.005941 | 0.007895 | 0.02136 | 0.004486 | 0.1303 | 0.004867 | 0.1303 | 300 | -0.0006317 | -0.001006 | Efficacy (maximal amplitude ΔF/F), individual data points (human TAS2R39; listed as GCA): 0.1116 and 0.125 and 0.1542
5 | 10 | 0.06526 | 0.08617 | 0.01545 | 0.01427 | C[C@H](CCC(=O)O)[C@H]1CC[C@H]2[C@@H]3[C@@H](O)C[C@@H]4C[C@H](O)CC[C@]4(C)[C@H]3CC[C@]12C [Ursodeoxycholic Acid, ursodeoxycholic acid] |  |  |  |  |  |  |  |  |  |  |  | Δ F/F (mouse Tas2r123; conc. 0,0001 mM): -5.942e-5; Δ F/F (mouse Tas2r123; conc. 0,0003 mM): -0.0007331
